Here are results for one molecule from patent US6784165B1, “Treatment of heart rhythm disturbances with N6-substituted-5′-(N-substituted) carboxamidoadenosines” (Aderis Pharmaceuticals, Inc., priority 1999, dated 2004).

For orientation: bioavailability means dose-corrected exposure relative to a reference, in per cent.

The nature of data set [1]: Oral bioavailability estimated from bradycardia AUC oral vs intravenous in conscious rats. Conditions: male, Sprague-Dawley, rat, in vivo. The format is in vivo, rat. The text has this:
Concentration dose-effect curve data were fitted to a sigmoid curve using Graphpad PRIZM™ software to obtain the concentration or dose of test compound that produces 50% of the maximal obtainable response, in vitro EC50 or in vivo ED50 values, for activation of the adenosine A1 receptor. Responses measured to each dose were the plateau negative inotropic response to cumulative additions of test compound in the isolated left atria and the peak bradycardia in response to bolus intravenous injections of test compound in conscious rats. Oral bioavailability was estimated from pharmacodynamic responses using the expression: (Response AUCoral/Response AUCiv)(Doseiv/Doseoral), where Response AUC is the area under the curve for test compound-induced bradycardia over time.
Male Sprague-Dawley rats were anesthetized with sodium pentobarbital 50 mg/kg i.p., and indwelling catheters were surgically implanted in the carotid artery and jugular vein two days prior to each experiment. During all subsequent experiments, rats were conscious and unrestrained. The carotid artery cannula was attached to a pressure transducer and blood pressure was recorded continuously throughout each experiment using a Grass polygraph. Heart rate was derived from the blood pressure signal using a Grass tachygraph. The measured parameters were allowed from 30 to 90 minutes to stabilize before the administration of test compound.
Test compounds were administered either by oral gavage using a curved, bulbed oral dosing cannula, or by intravenous administration via the jugular vein indwelling catheter. Rats dosed orally were fasted overnight before dosing, with water available ad libitum. Because the heart rate responses following intravenous administration of test compound rapidly returned to baseline, more than one dose of test compound could be administered to each rat. However, the responses to oral administration of test compounds were of a prolonged duration and therefore only a single dose could be administered to each rat.
A comparison of the area under the bradycardia vs. time curve (AUC) following intravenous administration with the AUC following oral administration was used as a measure of oral bioavailability.

In data set [2] the test system is guinea pig isolated heart. As to the kind of experiment: Guinea pig isolated electrically paced heart: effect of heart rate on AV interval and heart block. How it is done: Guinea pig isolated hearts were prepared according to the method of Langendorff in which the coronary vasculature was perfused in a retrograde fashion at constant pressure via the aorta. Compound A was administered to the spontaneously beating hearts by infusion into the perfusion line supplying buffer to the coronary vasculature. The concentration of Compound A was adjusted by changes in the infusion rate and/or changes in the concentration of infusion solutions. The concentration of Compound A present in the perfusate was calculated by dividing the rate of Compound A infused by the coronary flow rate. Spontaneously beating heart rate and AV interval were recorded.
Guinea pig isolated hearts were prepared according to the methods described in Example 5. In the first portion of the experiment designed to determine the effect of heart rate on the negative dromotropic activity of Compound A, hearts were allowed to beat spontaneously or electrically paced either at 200 beats per minute (approximately 20% above the spontaneous rate) or at 300-360 beats per minute (approximately 80% above the spontaneous rate). Atrioventricular (AV) conduction interval (AV interval) was determined as the time from the atrial stimulus to the beginning of ventricular depolarization. The AV interval measurements were performed at each pacing rate with increased concentrations of Compound A as described in Example 5. Upon electrical pacing at 200 beats per minute, Compound A at a mean concentration of 3.9 nM produced a mean maximal 58% increase in AV interval, and heart block at a mean minimal concentration of 5.1 nM. […] The results are summarized in the table below, with data from spontaneously beating hearts included for comparative purposes: […]

Data set [3] relates to guinea pig isolated heart. As to the kind of experiment: Guinea pig isolated heart model of paroxsymal supraventricular tachycardia (200/300/200 bpm pacing). How it is done:
Guinea pig isolated hearts were prepared according to the methods described in Example 5. In the first portion of the experiment designed to determine the effect of heart rate on the negative dromotropic activity of Compound A, hearts were allowed to beat spontaneously or electrically paced either at 200 beats per minute (approximately 20% above the spontaneous rate) or at 300-360 beats per minute (approximately 80% above the spontaneous rate). Atrioventricular (AV) conduction interval (AV interval) was determined as the time from the atrial stimulus to the beginning of ventricular depolarization. The AV interval measurements were performed at each pacing rate with increased concentrations of Compound A as described in Example 5. Upon electrical pacing at 200 beats per minute, Compound A at a mean concentration of 3.9 nM produced a mean maximal 58% increase in AV interval, and heart block at a mean minimal concentration of 5.1 nM. […] The results are summarized in the table below, with data from spontaneously beating hearts included for comparative purposes:
Using the experimental conditions described in Example 6, individual hearts were paced at 200 bpm for one minute followed abruptly by one minute of pacing at 300 bpm, after which the pacing rate was returned to 200 bpm. The 300 bpm pacing cycle was intended to simulate an episode of supraventricular tachycardia. This pacing sequence was conducted in the presence of vehicle and in the presence of increasing concentrations of Compound A. The results are expressed in FIG. 2. Compound A, at a mean concentration of 2 nM that had little effect on AV interval at 200 bpm induced AV block within 30 seconds during the 300 bpm episode.

A further data set addresses T1, adenosine A1 receptor (Rattus norvegicus, UniProt P25099).
T1 sequence (P25099 1-326): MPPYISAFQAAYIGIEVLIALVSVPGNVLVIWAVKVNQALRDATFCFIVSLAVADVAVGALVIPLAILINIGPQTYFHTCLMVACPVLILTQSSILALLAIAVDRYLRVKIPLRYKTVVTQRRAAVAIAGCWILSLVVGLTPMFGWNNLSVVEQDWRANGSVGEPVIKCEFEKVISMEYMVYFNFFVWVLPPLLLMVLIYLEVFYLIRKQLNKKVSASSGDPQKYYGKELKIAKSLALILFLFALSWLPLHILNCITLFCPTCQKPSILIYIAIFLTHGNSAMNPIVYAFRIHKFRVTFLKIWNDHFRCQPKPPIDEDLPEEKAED
The data set is described as follows: Rat isolated Langendorff heart paced at 360 bpm: AV conduction (S-V interval) and coronary blood flow. More on the design: Rat isolated hearts were prepared according to the method of Langendorff; from tissue; host or cells: rat isolated perfused heart (Langendorff). Conditions: rat isolated heart paced at 360 beats per minute. How it is done:
Rat isolated hearts were prepared according to the method of Langendorff in which the coronary vasculature was perfused in a retrograde fashion at constant pressure via the aorta. Coronary blood flow was determined by measuring the volume of fluid leaving the heart. Heart rate was maintained at 360 beats per minute by electrical pacing of the right atrium. Atrioventricular (AV) conduction was determined as the time from the atrial stimulus to the beginning of ventricular depolarization (S-V interval).

Take `CCNC(=O)[C@H]1O[C@@H](n2cnc3c(NC4CCCC4)ncnc32)[C@H](O)[C@@H]1O` [Compound A, ethyl N^6-cyclopentyladenosine-5′-uronamide]: the bioavailability in data set [1] was 53%. In addition, the “mean maximal increase in AV interval” value in data set [2] (paced at 200 beats per minute, at 3.9 nM) is 58%. In data set [2] (paced at 200 bpm), the “Mean Concentration of Compound A Required to Produce Maximal AV Interval” value came to 3.9 nM and the “Mean Minimal Concentration of Compound A Required to Produce Heart Block” value is listed as 5.1 nM. Besides, the “mean maximal increase in AV interval” value in data set [2] (paced at 300-360 beats per minute, at 1.45 nM) turned out to be 20%. Also, in data set [2] (paced at 300-360 bpm), the “Mean Concentration of Compound A Required to Produce Maximal AV Interval” value is 1.45 nM and the “Mean Minimal Concentration of Compound A Required to Produce Heart Block” value stood at 2.1 nM. For the same molecule, the “effect on AV interval at 200 bpm pacing” value in data set [3] (2 nM, 200 bpm pacing before the episode) is “little effect”. The “time to AV block during the 300 bpm episode” value in data set [3] (2 nM, 300 bpm pacing) was not above 30 s. For the same molecule, the “AV interval when pacing was returned to 200 bpm” value in data set [3] (2 nM, after the 300 bpm episode) is reported as “returned to near normal values”. Also, the “mean concentration inducing AV block during the 300 bpm pacing episode” value in data set [3] (PSVT model, 300 bpm episode) was found to be 2 nM. Also, on adenosine A1 receptor, the “mean concentration at maximal increase in S-V interval” value came to 6.8 nM and the “mean concentration for AV conduction blockade” value is 8.3 nM.
